Source: US6780853B1, “Neuroactive steroids of the androstane and pregnane series” (priority 1995, dated 2004)
Counter-ions that a name gives are not always drawn.

Experiments:
[1] = tested on: metrazol induced convulsions; assay: Antimetrazol activity in mice; format: in vivo; conditions: IP
Protocol: Experiments were also performed to determine the physiological relevance of neuroactive steroid and GABA receptor interactions by assessing the ability of compounds of the present invention to prevent metrazol induced convulsions in mice. Mice were injected with various doses of the test compounds of the invention, 10 minutes prior to the injection of metrazol. The time to onset of myoclonus (presence of forelimb clonic activity) induced by metrazol was determined by observing each mouse for a period of 30 minutes. In control mice, metrazol (85 mg/kg) will induce convulsion in 95% of the animals.
The anticonvulsant tests are similar to that described above.

[2] = biological target: GABA receptor complex (GRC); assay: [35S]TBPS binding in rat cerebral cortex P2 homogenate; conditions: for IC50: concentration to inhibit 50% of control [35S]TBPS binding, 2 nM [35S]TBPS; for IMAX (maximum inhibition): maximum inhibition of [35S]TBPS binding
Description: To those skilled in the art, it is known that the modulation of [^35S]t-butylbicyclophosphorothionate ([^35S]TBPS) binding is a measure of the potency and efficacy of drugs acting at the GRC, which drugs may be of potential therapeutic value in the treatment of stress, anxiety, and seizure disorders (Squires, R. F., et al., Mol, Pharmacol., 23:326 (1983); Lawrence, L. J., et al., Biochem. Biophys. Res. Comm., 123:1130-1137 (1984); Wood, et al., Pharmacol, Exp. Ther., 231:572-576 (1984)). Several experiments were performed previously to determine the nature of the modulation of [^35S]TBPS as affected by neuroactive steroids. […] Furthermore, these compounds have high potency and efficacy at the GRC, with stringent structural requirements for such activity.
The procedures for performing this assay are fully discussed in: (1) Gee, K. W. et al., European Journal of Pharmacology, 136:419-423 (1987)); and (2) Gee, et al., Molecular Pharmacology 30:218 (1986). These procedures were performed as follows:
Brains from male Sprague-Dawley rats were removed immediately following sacrifice and the cerebral cortices dissected over ice. A P2 homogenate was prepared as previously described (Gee, et al., Molecular Pharmacology 30:218 (1986)). Briefly, the cortices were gently homogenized in 032 M sucrose followed by centrifugation at 1000×g for 10 minutes. The supernatant was collected and centrifuged at 9000×g for 20 minutes. The resultant P2 pellet was suspended as a 10% (original wet weight/volume) suspension in 50 mM Na/K phosphate buffer (pH 7.4) 200 mM NaCl to form the homogenate.
One hundred microliter […] aliquots of the P2 homogenate (0.5 milligrams (mg) protein) were incubated with 2 nanomolar (nM) [^35S]TBPS (70-110 curies/millimole; New England Nuclear, Boston, Mass.) in the presence or absence of the naturally occurring steroids or their synthetic derivatives to be tested. The tested compounds were dissolved in dimethylsulfoxide (Baker Chem. Co., Phillipsburg, N.J.) and added to the incubation mixture in 5 μL aliquots. The incubation mixture was brought to a final volume of 1 mL with buffer. Non-specific binding was defined as binding in the presence of […]. The effect and specificity of GABA (Sigma Chem. Co., St. Louis, Mo.) was evaluated by performing all assays in the presence of GABA plus (+)bicuculline (Sigma Chem. Co.). Incubations maintained at 25° C. for 90 minutes (steady state conditions) were terminated by rapid filtration through glass fiber filters (No. 32, Schleicher and Schuell, Keene, N.H.). Filter-bound radioactivity was quantitated by liquid scintillation spectrophotometry. Kinetic data and compound/[^35S]TBPS dose-response curves were analyzed by nonlinear regression using a computerized iterative procedure to obtain rate constants and IC50 (concentration of compound at which half-maximal inhibition of basal [^35S]TBPS binding occurs) values.
Various compounds were screened to determine their potential as modulators of [^35S]TBPS binding in vitro. These assays were performed in accordance with the above discussed procedures. Based on these assays, we have established the structure-activity requirements for their specific interaction at the GRC and their rank order potency and efficacy. Experimental data obtained in this assay for a number of 3α-hydroxypregnan-20-one derivatives is discussed in Gee, K. W. et al., European Journal of Pharmacology, 136:419-423 (1987) and in U.S. Pat. No. 5,232,917. Table 1 provides IC50 and maximum inhibition (IMAX) measurements for numerous compounds, including examples of compounds disclosed and claimed herein. IC50 is defined as concentration of compounds to inhibit 50% of control [^35S]TBPS binding. It is an indication of a compound's in vitro potency. Maximum inhibition is an indication of a compound's in vitro efficacy.

[3] = tested on: time spent on the open-arms; assay: Elevated plus-maze test; format: in vivo, N.I.H. Swiss-Webster mice
Description: The theoretical basis for the elevated plus-maze test is similar to that of the fight/dark transition test. As it was described previously by Pellow et al. J. Neurosci. Meth. 14:149-167 (1985)), the elevated plus-maze apparatus is designed to utilize the mice's natural aversion to open spaces. The apparatus consists of two open-arms and two enclosed-arms. The elevated plus-maze test allows for two measures of anxiety, the number of entries into the open-arms and the time spent on the open-arms, both expressed as a percentage of the total number of entries and time spent in/on both the open-arms and enclosed-arms.
Male N.I.H Swiss-Webster mice (Harlan, Indianapolis, Ind.) weighing 15-20 g were housed four per cage in polyethylene cages with sawdust bedding. The colony room was environmentally controlled (22° C.) with a 12 hr light/dark cycle (0600-1800 hr). Food and water were available ad libitum, except during testing. The experiments were run from 0700-1500 hr and groups were counterbalanced for time of day effects. Mice were only administered drug or vehicle once.
The method used was previously described (Lister, Psychopharmacol. 92:180-185 (1987)). The apparatus included two open arms perpendicular to two enclosed arms elevated 50 cm from the floor. Each arm was 50 cm long and the walls of the enclosed arms were 40 cm tall. The maze was made completely of black plexiglass. Incandescent 200 W light bulbs were above each of the open arms to produce a strong contrast between the open arms and the enclosed arms.
[…] Swiss-Webster mice were placed in the center of the plus-maze facing an open arm. During the 5 min test period, the number of entries onto the open arms and the enclosed arms, and the time spent in the open arms and enclosed arms were measured. All four paws had to be within an arm for the dependent variable to be measured. Therefore, the time spent in the center of the maze is not counted, so the total time spent in the open arms and the enclosed arms may not equal 5 min.

[4] = 50% hpbcd, 10 mg/kg, 10 min before metrazol 85 mg/kg

Structure (SMILES)	melting point [°C]	% Protected [1, 4] [%]	IC50 [2] [µM]	IMAX (maximum inhibition) [2] [%]	Plus-Maze (% Control), time spent on the open-arms ([3]; IP, 50% hpbcd, 10 mg/kg) [% Control]	% Protected ([1]; 50% hpbcd, 20 mg/kg) [%]	Plus-Maze (% Control), time spent on the open-arms ([3]; IP, 50% hpbcd, 20 mg/kg) [% Control]	% Protected ([1]; water, 10 mg/kg) [%]	Plus-Maze (% Control), time spent on the open-arms ([3]; PO, water, 10 mg/kg) [% Control]
CO[C@H]1CC[C@H]2[C@@H]3CC[C@@H]4C[C@H](OC(=O)C(C)C)CC[C@]4(C)[C@H]3CC[C@]12C	82 to 87	–	–	–	–	–	–	–	–
C[C@@]1(O)CC[C@@]2(C)[C@@H](CC[C@@H]3[C@@H]2CC[C@]2(C)[C@@H](C(=O)COc4ccc([N+](=O)[O-])cc4)CC[C@@H]32)C1	169 to 172	–	–	–	–	–	–	–	–
CC12CCC(O)CC1CCC1C2CCC2(C)C(C(=O)CSc3ncc[nH]3)CCC12 (stereo not drawn) [3α-Hydroxy-21-(imidazo-2-ylthio)-5β-pregnan-20-one]	–	6.25	0.184	80	166	–	–	–	–
C[C@]12CC[C@@H](O)C[C@H]1CC[C@@H]1[C@@H]2CC[C@]2(C)[C@@H](C(=O)CSc3ccccn3)CC[C@@H]12 [3α-Hydroxy-21-(pyrid-2-ylthio)-5β-pregnan-20-one]	–	–	0.09	66	–	12.5	187	–	–
C[C@]12CC[C@@H](O)C[C@H]1CC[C@@H]1[C@@H]2CC[C@]2(C)[C@@H](C(=O)C[S+]([O-])c3ccncc3)CC[C@@H]12 (stereo partly drawn) [3α-Hydroxy-21-(pyrid-4-ylsulfinyl)-5β-pregnan-20-one]	–	25	0.235	73	171	–	–	–	–
C[C@]12CC[C@@H](O)C[C@H]1CC[C@@H]1[C@@H]2CC[C@]2(C)[C@@H](C(=O)COc3cccnc3)CC[C@@H]12 [3α-hydroxy-21-(pyrid-3-yl)oxy-5β-pregnan-20-one]	63 to 66	–	0.076	76	–	–	–	–	–
C[C@]12CC[C@@H](O)C[C@H]1CC[C@@H]1[C@@H]2CC[C@]2(C)[C@@H](C(=O)CSc3ccncc3)CC[C@@H]12 [3α-hydroxy-21-(pyrid-4-ylthio)-5β-pregnan-20-one]	–	75	0.059	74	151	–	–	–	–
C[C@]12CC[C@@H](O)C[C@H]1CC[C@@H]1[C@@H]2CC[C@]2(C)[C@@H](C(=O)CSCCO)CC[C@@H]12 [3α-hydroxy-21-hydroxyethylthio-5β-pregnan-20-one]	150 to 152	12.5	0.141	71	–	–	–	–	–
COC1CCC2C3CCC4CC(O)(C#CCCO)CCC4(C)C3CCC12C (stereo not drawn) [3β-(4′-Hydroxybutyn-1′-yl)-3α-hydroxy-17β-methoxy-5α-androst] [3β-(4′-Hydroxy-1-′-butynyl)-3α-hydroxy-17β-methoxy-5α-androstane]	–	–	0.047	104	158	–	–	–	–
COC1CCC2C3CCC4CC(O)(C#CCCOC(=O)CCC(=O)O)CCC4(C)C3CCC12C (stereo not drawn) [3β-(4′-hydroxy-1′-butynyl)-3α-hydroxy-17β-methoxy-5β-androstane 4′-hemisuccinate sodium salt]	–	–	0.108	100	–	–	–	75	309
C=C[C@@]1(O)CC[C@@]2(C)[C@@H](CC[C@@H]3[C@@H]2CC[C@]2(C)[C@@H](OC)CC[C@@H]32)C1 [3β-Ethenyl-3α-hydroxy-17β-methoxy-5α-androstane]	–	–	0.133	104	127	–	–	–	–
C#C[C@@]1(O)CC[C@@]2(C)[C@@H](CC[C@@H]3[C@@H]2CC[C@]2(C)[C@@H](OC)CC[C@@H]32)C1 [3β-Ethynyl-3α-hydroxy-17β-methoxy-5α-androstane]	–	–	0.122	106	129	–	–	–	–
C#CC1(O)CCC2(C)C(CCC3C2CCC2(C)C(C(=O)CSCCS(=O)(=O)O)CCC32)C1 (stereo not drawn) [3β-ethynyl-3α-hydroxy-21-thioethanesulfonate-5β-pregnan-20-one sodium salt]	–	0	0.607	93	127	–	–	–	–
C[C@]12CC[C@@H](O)C[C@@H]1CC[C@@H]1[C@@H]2CC[C@]2(C)[C@@H](OCCO)CC[C@@H]12 [17β-(2-Hydroxyethoxy)-3α-hydroxy-5α-androstane]	181 to 183	–	0.534	99	–	–	–	–	–
CC(=O)c1ccc(C#CCO[C@H]2CC[C@H]3[C@@H]4CC[C@H]5C[C@](C)(O)CC[C@]5(C)[C@H]4CC[C@]23C)cc1 [17β-[3-(4-Acetylphenyl)-2-propynyloxy]-3α-hydroxy-3β-methyl-5α-androstane]	52 to 55	–	0.316	95	–	–	–	–	–
COCC1(O)CCC2(C)C(CCC3C2CCC2(C)C(C(=O)CSc4ccc(N)cc4)CCC32)C1 (stereo not drawn) [21-(4′-aminophenylthio)-3α-hydroxy-3β-methoxymethyl-5α-pregnan-20-one]	150 to 156	–	0.127	89	–	–	–	–	–
